The results in this text go back to PubChem BioAssay AID220 (DTP/NCI, 2004).

The assay concerns CD8F1 mice, subcutaneous mammary adenocarcinoma, T/C%. Kind of assay: NCI In Vivo Anticancer Drug Screen. Data for tumor model Mammary Adenocarcinoma CD8F1 (subcutaneous) in CD8F1. As to conditions: higher = larger tumour. In a few lines:
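Antitumor activity is assessed in transplantable-tumor mice by comparing the treated group with a vehicle-treated control group. Survival or tumor size serves as the measure, reported as T divided by C.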

[1] abbreviates: endpoint: median tumor weight (est.), dose: 1.0 mg/kg/injection, schedule: Q07DX005 (ip), vehicle: saline.
Where [2] appears, read: endpoint: median tumor weight (est.), dose: 12.5 mg/kg/injection, schedule: Q07DX005 (ip), vehicle: saline with Tween-80.
Where [3] appears, read: endpoint: median tumor weight (est.), dose: 25.0 mg/kg/injection, schedule: Q07DX005 (ip), vehicle: saline with Tween-80.
The mark [4] stands for this setting: endpoint: median tumor weight (est.), dose: 50.0 mg/kg/injection, schedule: Q07DX005 (ip), vehicle: saline with Tween-80.
[5] abbreviates: endpoint: median tumor weight (est.), dose: 100.0 mg/kg/injection, schedule: Q07DX005 (ip), vehicle: saline with Tween-80.

Several values for one entry are separate records, joined by “and”; a condition that tells them apart may be missing. Equal entries are not always repeated. Inconclusive results are not listed.

In the case of `Cc1c(N)nc([C@H](CC(N)=O)NC[C@H](N)C(N)=O)nc1C(=O)N[C@H](C(=O)N[C@H](C)[C@@H](O)CC(=O)N[C@H](C(=O)NC(O[C@@H]1O[C@@H](C)[C@@H](N)[C@@H](O)[C@H]1O)C(O)c1nc(-c2nc(C(=O)NCCCCN)cs2)cs1)[C@@H](C)O)[C@@H](O[C@@H]1O[C@@H](CO)[C@@H](O)[C@H](O)[C@@H]1O[C@H]1O[C@H](CO)[C@@H](O)[C@H](OC(N)=O)[C@@H]1O)c1c[nH]cn1` (stereo partly specified), the T/C is 55 % of control under setting [1]; 14 % of control and 26 % of control (endpoint: median tumor weight (est.), dose: 2.0 mg/kg/injection, schedule: Q07DX005 (ip), vehicle: saline); 18 % of control and 19 % of control (endpoint: median tumor weight (est.), dose: 4.0 mg/kg/injection, schedule: Q07DX005 (ip), vehicle: saline); 5 % of control (endpoint: median tumor weight (est.), dose: 8.0 mg/kg/injection, schedule: Q07DX005 (ip), vehicle: saline); 5 % of control (endpoint: median tumor weight (est.), dose: 16.0 mg/kg/injection, schedule: Q07DX005 (ip), vehicle: saline); 5 % of control (endpoint: median tumor weight (est.), dose: 32.0 mg/kg/injection, schedule: Q07DX005 (ip), vehicle: saline). The T/C (endpoint: median tumor weight change, dose: 4.0 mg/kg/injection, schedule: Q01DX001 (ip), vehicle: saline) is 98 % of control; the T/C (endpoint: median tumor weight change, dose: 8.0 mg/kg/injection, schedule: Q01DX001 (ip), vehicle: saline) is 55 % of control; the T/C (endpoint: median tumor weight change, dose: 16.0 mg/kg/injection, schedule: Q01DX001 (ip), vehicle: saline) is 104 % of control; the T/C (endpoint: median tumor weight change, dose: 32.0 mg/kg/injection, schedule: Q01DX001 (ip), vehicle: saline) was 52 % of control.
On to `CC1(C)CC1(Br)Br`, for which the T/C was 69 % of control under setting [2], 90 % of control under setting [3], 116 % of control under setting [4] and 59 % of control under setting [5].
As to `Cc1cc2nc3c(=O)[nH]c(=O)nc-3n(CC(O)C(O)C(O)C(O)CO)c2cc1C` (stereo unspecified), the T/C was 87 % of control and 100 % of control (endpoint: median tumor weight (est.), dose: 200.0 mg/kg/injection, schedule: Q07DX005 (ip), vehicle: suspension in saline); 58 % of control and 64 % of control (endpoint: median tumor weight (est.), dose: 400.0 mg/kg/injection, schedule: Q07DX005 (ip), vehicle: suspension in saline).
Turning to `O=C1N(Cl)C(=O)C(c2ccc(Cl)cc2)(c2ccc(Cl)cc2)N1Cl`, the T/C is, setting by setting: under setting [2], 98 % of control; under setting [3], 119 % of control; under setting [4], 91 % of control; under setting [5], 104 % of control; (endpoint: median tumor weight (est.), dose: 200.0 mg/kg/injection, schedule: Q07DX005 (ip), vehicle: saline with Tween-80) 113 % of control; (endpoint: median tumor weight (est.), dose: 400.0 mg/kg/injection, schedule: Q07DX005 (ip), vehicle: saline with Tween-80) 43 % of control. In addition, the T/C (endpoint: median tumor weight change, dose: 12.5 mg/kg/injection, schedule: Q01DX001 (ip), vehicle: saline with Tween-80) is 98 % of control; the T/C (endpoint: median tumor weight change, dose: 25.0 mg/kg/injection, schedule: Q01DX001 (ip), vehicle: saline with Tween-80) was 68 % of control; the T/C (endpoint: median tumor weight change, dose: 50.0 mg/kg/injection, schedule: Q01DX001 (ip), vehicle: saline with Tween-80) is 71 % of control; the T/C (endpoint: median tumor weight change, dose: 100.0 mg/kg/injection, schedule: Q01DX001 (ip), vehicle: saline with Tween-80) is 45 % of control and 48 % of control; the T/C (endpoint: median tumor weight change, dose: 200.0 mg/kg/injection, schedule: Q01DX001 (ip), vehicle: saline with Tween-80) was 44 % of control and 53 % of control; the T/C (endpoint: median tumor weight change, dose: 400.0 mg/kg/injection, schedule: Q01DX001 (ip), vehicle: saline with Tween-80) was 24 % of control.
Take `C=C(OP(=O)(OC)OC)Sc1ccccc1C`: the T/C by setting is: (endpoint: median tumor weight change, dose: 0.38 mg/kg/injection, schedule: Q01DX001 (ip), vehicle: Klucel (hydroxypropylcellulose) (HPC)) 80 % of control; (endpoint: median tumor weight change, dose: 0.75 mg/kg/injection, schedule: Q01DX001 (ip), vehicle: Klucel (hydroxypropylcellulose) (HPC)) 96 % of control; (endpoint: median tumor weight change, dose: 1.5 mg/kg/injection, schedule: Q01DX001 (ip), vehicle: Klucel (hydroxypropylcellulose) (HPC)) 88 % of control.
With `C1CC[N-]CC1.[Cl][Pt+2][Cl].[NH-]C1CC1`, the T/C was 116 % of control (endpoint: median tumor weight change, dose: 31.0 mg/kg/injection, schedule: Q01DX001 (ip), vehicle: water); 121 % of control (endpoint: median tumor weight change, dose: 62.0 mg/kg/injection, schedule: Q01DX001 (ip), vehicle: water); 26 % of control (endpoint: median tumor weight change, dose: 62.5 mg/kg/injection, schedule: Q01DX001 (ip), vehicle: distilled water + Tween-80); 21 % of control (endpoint: median tumor weight change, dose: 125.0 mg/kg/injection, schedule: Q01DX001 (ip), vehicle: water).
With `CC(=O)Nc1ccc(Nc2ccc(C(=C3C=CC(=[N+](C)CCC#N)C=C3)c3ccc(N(C)CCC#N)cc3)cc2)cc1`, the T/C (endpoint: median tumor weight change, dose: 125.0 mg/kg/injection, schedule: Q01DX001 (ip), vehicle: saline with Tween-80) is 67 % of control.
Turning to `CCN(CC)CCCNc1nccc2c(C)c3[nH]c4ccncc4c3cc12`, the T/C (endpoint: median tumor weight change, dose: 25.0 mg/kg/injection, schedule: Q01DX001 (ip), vehicle: other) was 29 % of control and 32 % of control.
With `O.O.[NH-]C1CCCCC1[NH-].[Pt+2]` (stereo unspecified), the T/C reads like this: (endpoint: median tumor weight (est.), dose: 0.62 mg/kg/injection, schedule: Q07DX005 (ip), vehicle: dextrose) 50 % of control; (endpoint: median tumor weight (est.), dose: 20.0 mg/kg/injection, schedule: Q07DX005 (ip), vehicle: dextrose) 69 % of control; (endpoint: median tumor weight (est.), dose: 40.0 mg/kg/injection, schedule: Q07DX005 (ip), vehicle: dextrose) 39 % of control.
With `COC(=O)[C@@]12OC[C@]34[C@H]([C@@H](O)[C@@H]1O)[C@@]1(C)CC(=O)C(O)=C(C)[C@@H]1C[C@H]3OC(=O)[C@H](OC(=O)/C=C(\C)C(C)C)[C@@H]24`, the T/C (endpoint: median tumor weight (est.), dose: 0.25 mg/kg/injection, schedule: Q07DX005 (ip), vehicle: saline + alcohol) is 99 % of control; the T/C (endpoint: median tumor weight (est.), dose: 0.5 mg/kg/injection, schedule: Q07DX005 (ip), vehicle: saline + alcohol) is 92 % of control; the T/C (endpoint: median tumor weight (est.), dose: 1.0 mg/kg/injection, schedule: Q07DX005 (ip), vehicle: saline + alcohol) was 104 % of control; the T/C (endpoint: median tumor weight change, dose: 1.0 mg/kg/injection, schedule: Q01DX001 (ip), vehicle: saline + alcohol) was 85 % of control; the T/C (endpoint: median tumor weight change, dose: 2.0 mg/kg/injection, schedule: Q01DX001 (ip), vehicle: saline + alcohol) was 81 % of control; the T/C (endpoint: median tumor weight change, dose: 4.0 mg/kg/injection, schedule: Q01DX001 (ip), vehicle: saline + alcohol) is 93 % of control.
For `O=CC=O`, where the note is “endpoint: median tumor weight (est.), dose: 25.0 mg/kg/injection, schedule: Q07DX005 (ip), vehicle: Klucel (hydroxypropylcellulose) (HPC)”, the T/C was 92 % of control and 100 % of control.
Turning to `COc1cc2c[n+](C)c3c4cc5c(cc4ccc3c2cc1OC)OCO5`, the T/C was 78 % of control (endpoint: median tumor weight (est.), dose: 10.0 mg/kg/injection, schedule: Q07DX005 (ip), vehicle: saline with Tween-80); 31 % of control (endpoint: median tumor weight (est.), dose: 40.0 mg/kg/injection, schedule: Q07DX005 (ip), vehicle: saline with Tween-80); 4 % of control (endpoint: median tumor weight (est.), dose: 80.0 mg/kg/injection, schedule: Q07DX005 (ip), vehicle: saline with Tween-80).
Consider `N#Cc1cn(C2OC(CO)C(O)C2O)c2ncnc(N)c12` (stereo unspecified), for which the T/C (endpoint: median tumor weight (est.), dose: 0.12 mg/kg/injection, schedule: Q07DX005 (ip), vehicle: saline) was 86 % of control; the T/C (endpoint: median tumor weight (est.), dose: 0.25 mg/kg/injection, schedule: Q07DX005 (ip), vehicle: saline) was 53 % of control; the T/C (endpoint: median tumor weight (est.), dose: 0.5 mg/kg/injection, schedule: Q07DX005 (ip), vehicle: saline) was 55 % of control; the T/C under setting [1] was 63 % of control.
With `CCOC(=O)C(CC(C)C)NC(=O)C(Cc1ccc(N(CCCl)CCCl)cc1)NC(C)=O` (stereo unspecified), the T/C was 112 % of control (endpoint: median tumor weight (est.), dose: 8.0 mg/kg/injection, schedule: Q07DX005 (ip), vehicle: saline with Tween-80); 49 % of control and 58 % of control (endpoint: median tumor weight (est.), dose: 32.0 mg/kg/injection, schedule: Q07DX005 (ip), vehicle: saline with Tween-80); 9 % of control (endpoint: median tumor weight (est.), dose: 64.0 mg/kg/injection, schedule: Q07DX005 (ip), vehicle: saline with Tween-80).
As to `N=C(N)c1ccc(/C=C/c2ccc(C(=N)N)cc2O)cc1`, the T/C (endpoint: median tumor weight (est.), dose: 12.5 mg/kg/injection, schedule: Q07DX005 (ip), vehicle: water) is 75 % of control and 76 % of control.
Take `Cc1cc2c(C(C)C)c(O)c(O)c(C=O)c2c(O)c1-c1c(C)cc2c(C(C)C)c(O)c(O)c(C=O)c2c1O`: the T/C (endpoint: median tumor weight change, dose: 31.25 mg/kg/injection, schedule: Q01DX001 (ip), vehicle: saline with Tween-80) was 65 % of control.
On to `COc1ccc(OC)c(Cc2cnc3nc(N)nc(N)c3c2C)c1`, for which the T/C runs as follows: (endpoint: median tumor weight change, dose: 31.25 mg/kg/injection, schedule: Q01DX001 (ip), vehicle: other) 47 % of control; (endpoint: median tumor weight change, dose: 62.5 mg/kg/injection, schedule: Q01DX001 (ip), vehicle: other) 64 % of control.
